# Measurements taken from PMC5796035 (2017).
# What was measured:
# [1] = system: R12.51 (DNA, aptamer) TGTACCGTCTGAGCGATTCGTACAGTTTCTGGAGGACTGGGCGGGGTGACGGTTATGAGCCAGTCAGTGTTAAGGAGTGC; assay: competitive elution from immobilised fipronil, fluorescence; conditions: 100 mM NaCl, 2 mM MgCl2, 20 mM Tris-HCl
# [2] = system: R12.51 (DNA, aptamer) TGTACCGTCTGAGCGATTCGTACAGTTTCTGGAGGACTGGGCGGGGTGACGGTTATGAGCCAGTCAGTGTTAAGGAGTGC; assay: plate-based fluorescence saturation binding; conditions: 100 mM NaCl, 2 mM MgCl2; immobilised compound (maleic anhydride plate); 20 mM Tris-HCl; mean of four assays (55, 35, 38, 64 nM)
smiles,measurement,setting,value
N#Cc1nn(-c2c(Cl)cc(C(F)(F)F)cc2Cl)c(N)c1C(F)(F)F,binding,"[1]; 1 µM, displaces MRE from immobilised fipronil, fipronil/compound ratio 1.16",yes
CCC(=O)Nc1ccc(Cl)c(Cl)c1,binding,"[1]; 1 µM, fipronil/compound ratio 1.52 (5.05 at 200 nM in river water/buffer)",weak
CCNc1nc(Cl)nc(NC(C)C)n1,binding,"[1]; 1 µM, fipronil/compound ratio 1.23 (4.80 at 200 nM in river water/buffer)",weak
CCS(=O)c1c(C#N)nn(-c2c(Cl)cc(C(F)(F)F)cc2Cl)c1N (centres unmarked),binding,"[1]; 1 µM, displaces MRE from immobilised fipronil, fipronil/compound ratio 1.10",yes
N#Cc1nn(-c2c(Cl)cc(C(F)(F)F)cc2Cl)c(N)c1S(=O)C(F)(F)F (centres unmarked),binding,"[1]; free compound 1 µM, normalized fluorescence 2.413 (no target 0.247)",yes
same,Kd,[2],48 ± 8 nM
N#Cc1nn(-c2c(Cl)cc(C(F)(F)F)cc2Cl)c(N)c1SC(F)(F)F,binding,"[1]; 1 µM, displaces MRE from immobilised fipronil, fipronil/compound ratio 0.89",yes
N#Cc1nn(-c2c(Cl)cc(C(F)(F)F)cc2Cl)c(N)c1S(=O)(=O)C(F)(F)F,binding,"[1]; 1 µM, displaces MRE from immobilised fipronil, fipronil/compound ratio 1.07",yes
